Measurements reported in publication PMC11866186, “Novel Benzimidazole–Oxadiazole Derivatives as Anticancer Agents with VEGFR2 Inhibitory Activity: Design, Synthesis, In Vitro Anticancer Evaluation, and In Silico Studies” (ACS Omega, 2025).
Like-named read-outs stand apart in the source and are kept apart here.

How the values were obtained:
A549 cell line = assay: MTT assay, A549 cells; type: cell-based, human; conditions: MTT, 24 h, read-out: IC50 against A549
Method: (§1) The synthesized compounds 4a–4s were screened for their in vitro anticancer activity via the standard MTT assay using three human tumor cell lines, namely, the human lung adenocarcinoma cell line (A549), the human breast cancer cell line (MCF-7), and the human pancreas cell line (PANC-1). Cisplatin was used as a reference drug. […] When the structures of the compounds are evaluated, it is seen that the compounds are derived from two different sources. There are hydroxyl and methoxy substituents on the phenyl ring attached to the benzimidazole. It has also been derivatized using different groups on the phenyl ring close to oxadiazole. When the activities in the PANC-1 cell line are evaluated, it is seen that the activity of compounds bearing the 2,4-dichloro substituent is especially high.
(§2) Many analyses are performed to determine cell proliferation. MTT analysis is one of the viability determination tests. According to the working mechanism of the method, the dye containing the tetrazolium ring reacts with the dehydrogenase enzymes in the cells, only to be reduced and broken down by the metabolic cells, turning into water-insoluble formazan crystals. Color changes associated with mitochondrial activity and resulting from the addition of a solvent as a result of the reaction are measured in the microplate reader as optical density data values.[30] Cells were planted in flat-bottomed, 96-well, sterile, lidded, disposable microplates with 1 × 10^4 cells per well in 200 μL of appropriate medium and were allowed to adhere to the plate bottom by incubating for 24 h. At the end of 24 h, 100 μL of medium was withdrawn, and test substances at different concentrations, prepared in 100 μL, were added. Following the substance application, after a 24 h incubation period, 20 μL of stock MTT solution (MTT solution dissolved in 5 mg/mL PBS and filtered before application) was added to each well and protected from light, and the incubation continued for 3 h. Then, the media of the cells were completely withdrawn, and 100 μL of DMSO was added to dissolve the formazan crystals. After shaking in the dark for 15 min, the optical densities (absorbance) of the color changes at 540–570 and 650 nm reference wavelengths were read in the microplate reader. The data were calculated and created in Microsoft Office Excel. For this purpose, first, the blind well value and the control groups of colored substances were removed from the optical readings. The averages of optical densities and % viability values were made from Excel formula calculations, and the results were discussed. The viability of the control group was assumed to be 100%, and all other viability values were calculated based on this (series were run in n = 5 replicates).

PANC-1 cell line = assay: MTT assay, PANC-1 cells; type: cell-based, human; conditions: MTT, 24 h, read-out: IC50 against PANC-1
Method: Cisplatin was used as a reference drug. […] There are hydroxyl and methoxy substituents on the phenyl ring attached to the benzimidazole. It has also been derivatized using different groups on the phenyl ring close to oxadiazole.
as §2

MCF-7 cell line = assay: MTT assay, MCF-7 cells; type: cell-based, human; conditions: read-out: IC50 against MCF-7
Method: as §1, §2

CCD-19Lu cell line = assay: MTT assay, normal lung CCD-19Lu cells; type: cell-based; conditions: normal human lung cells, 24 h, read-out: IC50 against CCD-19Lu
Method: (§3) By comparing the compounds’ cytotoxic effects against tumor cell lines and normal cell lines, the drug safety parameter for the anticancer activity of the compounds was evaluated, thereby confirming their cytoprotective qualities. In this study, normal human lung (CCD-19Lu) and normal human pancreas (hTERT-HPNE) cell lines were used as controls. The selectivity index (SI) calculated for the compounds tested scales the IC50 values of the compounds against various tumor cell lines with the IC50 values against normal cell lines (Table 2). […] The differential selectivity indices underscore the importance of targeted therapeutic strategies and the potential for these compounds to provide selective anticancer effects with reduced toxicity to normal cells.
as §2

hTERT-HPNE cell line = assay: MTT assay, normal pancreas hTERT-HPNE cells; type: cell-based; conditions: normal human pancreas cells, 24 h, read-out: IC50 against hTERT-HPNE
Method: as §3, §2

Row | Compound | IC50 (A549 cell line) [µM] | IC50 (PANC-1 cell line) [µM] | IC50 (MCF-7 cell line; 24 h) [µM] | IC50 (CCD-19Lu cell line) [µM] | IC50 (hTERT-HPNE cell line) [µM] | IC50 (A549 cell line; Homo sapiens, A549) [µM] | IC50 (PANC-1 cell line; Homo sapiens, PANC-1, 24 h) [µM] | IC50 (MCF-7 cell line; Homo sapiens, MCF7, 24 h) [µM] | IC50 (CCD-19Lu cell line; CCD 19Lu) [µM]
1 | 2-((5-(2-(4-Hydroxyphenyl)-1H-benzimidazol-6-yl)-1,3,4-oxadiazol-2-yl)thio)-1-(4-methylphenyl)-ethanone [4b] | 5.1 | 33.1 | 17.4 | 40.3 | 86.8 | – | – | – | –
2 | 2-((5-(2-(4-Methoxyphenyl)-1H-benzimidazol-6-yl)-1,3,4-oxadiazol-2-yl)thio)-1-(4-methylphenyl)-ethanone [4k] | 74.7 | 82 | 50.2 | 90.4 | 29.3 | – | – | – | –
3 | O=C(CSc1nnc(-c2ccc3nc(-c4ccc(O)cc4)[nH]c3c2)o1)c1ccccc1 [4a, 2-((5-(2-(4-Hydroxyphenyl)-1H-benzimidazol-6-yl)-1,3,4-oxadiazol-2-yl)thio)-1-phenyl-ethanone] | – | – | – | – | 26.2 | 63.2 | 42.2 | 39.5 | 46.1
4 | O=C(CSc1nnc(-c2ccc3nc(-c4ccc(O)cc4)[nH]c3c2)o1)c1ccc(Cl)cc1 [4c, 2-((5-(2-(4-Hydroxyphenyl)-1H-benzimidazol-6-yl)-1,3,4-oxadiazol-2-yl)thio)-1-(4-chlorophenyl)-ethanone] | – | – | – | – | 21.5 | 6.3 | 17.7 | 6.1 | 16.3
5 | O=C(CSc1nnc(-c2ccc3nc(-c4ccc(O)cc4)[nH]c3c2)o1)c1ccc(F)cc1 [4d, 2-((5-(2-(4-Hydroxyphenyl)-1H-benzimidazol-6-yl)-1,3,4-oxadiazol-2-yl)thio)-1-(4-florophenyl)-ethanone] | – | – | – | – | 6.8 | 10.3 | 33.3 | 10.1 | 5.2
6 | O=C(CSc1nnc(-c2ccc3nc(-c4ccc(O)cc4)[nH]c3c2)o1)c1ccc(Br)cc1 [4e, 2-((5-(2-(4-Hydroxyphenyl)-1H-benzimidazol-6-yl)-1,3,4-oxadiazol-2-yl)thio)-1-(4-bromophenyl)-ethanone] | – | – | – | – | 11.3 | 96.1 | 83.8 | 95.2 | 95.3
7 | N#Cc1ccc(C(=O)CSc2nnc(-c3ccc4nc(-c5ccc(O)cc5)[nH]c4c3)o2)cc1 [4f, 2-((5-(2-(4-Hydroxyphenyl)-1H-benzimidazol-6-yl)-1,3,4-oxadiazol-2-yl)thio)-1-(4-cyanophenyl)-ethanone] | – | – | – | – | 74.9 | 50.7 | 60.4 | 45.6 | 68.8
8 | O=C(CSc1nnc(-c2ccc3nc(-c4ccc(O)cc4)[nH]c3c2)o1)c1ccc(F)cc1F [4g, 2-((5-(2-(4-Hydroxyphenyl)-1H-benzimidazol-6-yl)-1,3,4-oxadiazol-2-yl)thio)-1-(2,4-diflorophenyl)-ethanone] | – | – | – | – | 17.1 | 16.8 | 36.6 | 30.7 | 31.8
9 | O=C(CSc1nnc(-c2ccc3nc(-c4ccc(O)cc4)[nH]c3c2)o1)c1ccc(Cl)cc1Cl [4h, 2-((5-(2-(4-Hydroxyphenyl)-1H-benzimidazol-6-yl)-1,3,4-oxadiazol-2-yl)thio)-1-(2,4-dichlorophenyl)-ethanone] | – | – | – | – | 32.9 | 14.6 | 26.7 | 15.7 | 30.3
10 | O=C(CSc1nnc(-c2ccc3nc(-c4ccc(O)cc4)[nH]c3c2)o1)c1ccc(O)c(O)c1 [4i, 2-((5-(2-(4-Hydroxyphenyl)-1H-benzimidazol-6-yl)-1,3,4-oxadiazol-2-yl)thio)-1-(3,4-dihydroxyphenyl)-ethanone] | – | – | – | – | 10.1 | 21.1 | 23.8 | 16.5 | 13.9
11 | COc1ccc(-c2nc3ccc(-c4nnc(SCC(=O)c5ccccc5)o4)cc3[nH]2)cc1 [4j, 2-((5-(2-(4-Methoxyphenyl)-1H-benzimidazol-6-yl)-1,3,4-oxadiazol-2-yl)thio)-1-phenyl-ethanone] | – | – | – | – | 93.6 | 99.1 | 95.7 | 53.7 | 95.2
12 | COc1ccc(-c2nc3ccc(-c4nnc(SCC(=O)c5ccc(Cl)cc5)o4)cc3[nH]2)cc1 [4l, 2-((5-(2-(4-Methoxyphenyl)-1H-benzimidazol-6-yl)-1,3,4-oxadiazol-2-yl)thio)-1-(4-chlorophenyl)-ethanone] | – | – | – | – | 19.5 | 49.1 | 42.1 | 22.6 | 47.8
13 | COc1ccc(-c2nc3ccc(-c4nnc(SCC(=O)c5ccc(F)cc5)o4)cc3[nH]2)cc1 [4m, 2-((5-(2-(4-Methoxyphenyl)-1H-benzimidazol-6-yl)-1,3,4-oxadiazol-2-yl)thio)-1-(4-florophenyl)-ethanone] | – | – | – | – | 28.6 | 25.3 | 41.1 | 36.9 | 20.2
14 | COc1ccc(-c2nc3ccc(-c4nnc(SCC(=O)c5ccc(Br)cc5)o4)cc3[nH]2)cc1 [4n, 2-((5-(2-(4-Methoxyphenyl)-1H-benzimidazol-6-yl)-1,3,4-oxadiazol-2-yl)thio)-1-(4-bromophenyl)-ethanone] | – | – | – | – | 36.2 | 19.6 | 29.5 | 28.9 | 36.8
15 | COc1ccc(-c2nc3ccc(-c4nnc(SCC(=O)c5ccc(C#N)cc5)o4)cc3[nH]2)cc1 [4o, 2-((5-(2-(4-Methoxyphenyl)-1H-benzimidazol-6-yl)-1,3,4-oxadiazol-2-yl)thio)-1-(4-cyanophenyl)-ethanone] | – | – | – | – | 64.2 | 65.2 | 70.9 | 49.2 | 48.4
16 | COc1ccc(-c2nc3ccc(-c4nnc(SCC(=O)c5ccc(F)cc5F)o4)cc3[nH]2)cc1 [4p, 2-((5-(2-(4-Methoxyphenyl)-1H-benzimidazol-6-yl)-1,3,4-oxadiazol-2-yl)thio)-1-(2,4-diflorophenyl)-ethanone] | – | – | – | – | 20.4 | 14.9 | 32.6 | 37.1 | 14.7
17 | N.N.[Cl][Pt][Cl] [cisplatin, reference compound] | 19.7 | 28.8 | 14.7 | 22.6 | 30.6 | – | – | – | –
